Measurements as given in patent US20260042731A1, “(2,4-DICHLOROPHENOXY)ACETIC ACID ANALOGS” (CORTEVA AGRISCIENCE LLC, priority 2022, published 2026).
Where two headings read alike, the source gives them in different places.

Columns and labels:
[1] = test system: weeds ABUTH, AMATA, AMBEL, CHEAL, ERICA; experiment: Postemergence herbicide evaluation, overall average % weed control (ABUTH, AMATA, AMBEL, CHEAL, ERICA); type: in vivo; details: for pest or weed control at 280 g/ha / pest or weed control at 560 g/ha: post-emergence, read-out: Overall Ave % Weed Control
[2] = test system: Amaranthus rudis (AMATA), tall water hemp; experiment: Postemergence herbicide evaluation, growth of Amaranthus rudis (AMATA); type: in vivo; details: for pest or weed control at 280 g/ha / pest or weed control at 560 g/ha: Amaranthus tuberculatus, post-emergence, read-out: Ave. AMATA, percent reduction in plant size relative to the untreated control
[3] = test system: Chenopodium album (CHEAL), common lambsquarters; experiment: Postemergence herbicide evaluation, growth of Chenopodium album (CHEAL); type: in vivo; details: for pest or weed control at 280 g/ha / pest or weed control at 560 g/ha: Chenopodium album, post-emergence, read-out: Ave. CHEAL, percent reduction in plant size relative to the untreated control
[4] = test system: glyphosate resistant Conyza canadensis (L.) (ERICA), horseweed; experiment: Postemergence herbicide evaluation, growth of Conyza canadensis (ERICA); type: in vivo; details: for pest or weed control at 280 g/ha / pest or weed control at 560 g/ha: Erigeron canadensis, post-emergence, read-out: Ave. ERICA, percent reduction in plant size relative to the untreated control
[5] = Volatility of compounds measured by thermogravimetric analysis (TGA); type: physicochemical
[6] = test system: Abutilon theophrasti (ABUTH), velvetleaf; experiment: Postemergence herbicide evaluation, growth of Abutilon theophrasti (ABUTH); type: in vivo; details: for pest or weed control at 280 g/ha / pest or weed control at 560 g/ha: Abutilon theophrasti, post-emergence, read-out: AVE. ABUTH, percent reduction in plant size relative to the untreated control
[7] = test system: Ambrosia artemisiifolia (AMBEL), common ragweed; experiment: Postemergence herbicide evaluation, growth of Ambrosia artemisiifolia (AMBEL); type: in vivo; details: for pest or weed control at 280 g/ha / pest or weed control at 560 g/ha: Ambrosia artemisiifolia, post-emergence, read-out: AVE. AMBEL, percent reduction in plant size relative to the untreated control

O=C(COc1ccc(Cl)cc1Cl)Oc1cncnc1 [Compound E1]
Overall Ave % Weed Control ([1]; 280 g ae/ha, 7 DAA): 75% | Overall Ave % Weed Control ([1]; 280 g ae/ha, 14 DAA): 85% | Overall Ave % Weed Control ([1]; 280 g ae/ha, 21 DAA): 88% | Overall Ave % Weed Control ([1]; 560 g ae/ha, 7 DAA): 76% | Overall Ave % Weed Control ([1]; 560 g ae/ha, 14 DAA): 89% | Overall Ave % Weed Control ([1]; 560 g ae/ha, 21 DAA): 93% | Ave. AMATA, percent reduction in plant size relative to the untreated control ([2]; 280 g ae/ha, 7 DAA): 78% | Ave. AMATA, percent reduction in plant size relative to the untreated control ([2]; 280 g ae/ha, 14 DAA): 75% | Ave. AMATA, percent reduction in plant size relative to the untreated control ([2]; 280 g ae/ha, 21 DAA): 70% | Ave. AMATA, percent reduction in plant size relative to the untreated control ([2]; 560 g ae/ha, 7 DAA): 73% | Ave. AMATA, percent reduction in plant size relative to the untreated control ([2]; 560 g ae/ha, 14 DAA): 85% | Ave. AMATA, percent reduction in plant size relative to the untreated control ([2]; 560 g ae/ha, 21 DAA): 85% | Ave. CHEAL, percent reduction in plant size relative to the untreated control ([3]; 280 g ae/ha, 7 DAA): 70% | Ave. CHEAL, percent reduction in plant size relative to the untreated control ([3]; 280 g ae/ha, 14 DAA): 73% | Ave. CHEAL, percent reduction in plant size relative to the untreated control ([3]; 280 g ae/ha, 21 DAA): 78% | Ave. CHEAL, percent reduction in plant size relative to the untreated control ([3]; 560 g ae/ha, 7 DAA): 75% | Ave. CHEAL, percent reduction in plant size relative to the untreated control ([3]; 560 g ae/ha, 14 DAA): 90% | Ave. CHEAL, percent reduction in plant size relative to the untreated control ([3]; 560 g ae/ha, 21 DAA): 87% | Ave. ERICA, percent reduction in plant size relative to the untreated control ([4]; 280 g ae/ha, 7 DAA): 68% | Ave. ERICA, percent reduction in plant size relative to the untreated control ([4]; 280 g ae/ha, 14 DAA): 85% | Ave. ERICA, percent reduction in plant size relative to the untreated control ([4]; 280 g ae/ha, 21 DAA): 95% | Ave. ERICA, percent reduction in plant size relative to the untreated control ([4]; 560 g ae/ha, 7 DAA): 75% | Ave. ERICA, percent reduction in plant size relative to the untreated control ([4]; 560 g ae/ha, 14 DAA): 85% | Ave. ERICA, percent reduction in plant size relative to the untreated control ([4]; 560 g ae/ha, 21 DAA): 98% | TGA Data (rate of weight loss, volatility) [5]: 0.8 µg/min | AVE. ABUTH, percent reduction in plant size relative to the untreated control ([6]; 280 g ae/ha, 7 DAA): 93% | AVE. ABUTH, percent reduction in plant size relative to the untreated control ([6]; 280 g ae/ha, 14 DAA): 96% | AVE. ABUTH, percent reduction in plant size relative to the untreated control ([6]; 280 g ae/ha, 21 DAA): 100% | AVE. ABUTH, percent reduction in plant size relative to the untreated control ([6]; 560 g ae/ha, 7 DAA): 85% | AVE. ABUTH, percent reduction in plant size relative to the untreated control ([6]; 560 g ae/ha, 14 DAA): 97% | AVE. ABUTH, percent reduction in plant size relative to the untreated control ([6]; 560 g ae/ha, 21 DAA): 100% | AVE. AMBEL, percent reduction in plant size relative to the untreated control ([7]; 280 g ae/ha, 7 DAA): 65% | AVE. AMBEL, percent reduction in plant size relative to the untreated control ([7]; 280 g ae/ha, 14 DAA): 96% | AVE. AMBEL, percent reduction in plant size relative to the untreated control ([7]; 280 g ae/ha, 21 DAA): 99% | AVE. AMBEL, percent reduction in plant size relative to the untreated control ([7]; 560 g ae/ha, 7 DAA): 73% | AVE. AMBEL, percent reduction in plant size relative to the untreated control ([7]; 560 g ae/ha, 14 DAA): 90% | AVE. AMBEL, percent reduction in plant size relative to the untreated control ([7]; 560 g ae/ha, 21 DAA): 97%

O=C(COc1ccc(Cl)cc1Cl)Oc1ncc(Cl)cn1 [Compound E13]
pest or weed control at 280 g/ha ([1]; 168 h, 280 g ae/ha, 7 DAA): 78.3% | pest or weed control at 560 g/ha ([1]; 168 h, 560 g ae/ha, 7 DAA): 81.5% | pest or weed control at 280 g/ha ([1]; 336 h, 280 g ae/ha, 14 DAA): 91.4% | pest or weed control at 560 g/ha ([1]; 336 h, 560 g ae/ha, 14 DAA): 95.2% | pest or weed control at 280 g/ha ([1]; 504 h, 280 g ae/ha, 21 DAA): 96.5% | pest or weed control at 560 g/ha ([1]; 504 h, 560 g ae/ha, 21 DAA): 99.3% | pest or weed control at 280 g/ha ([2]; 168 h, 280 g ae/ha, 7 DAA): 85% | pest or weed control at 560 g/ha ([2]; 168 h, 560 g ae/ha, 7 DAA): 87.5% | pest or weed control at 280 g/ha ([2]; 336 h, 280 g ae/ha, 14 DAA): 82.5% | pest or weed control at 560 g/ha ([2]; 336 h, 560 g ae/ha, 14 DAA): 96% | pest or weed control at 280 g/ha ([2]; 504 h, 280 g ae/ha, 21 DAA): 86.5% | pest or weed control at 560 g/ha ([2]; 504 h, 560 g ae/ha, 21 DAA): 99% | pest or weed control at 280 g/ha ([3]; 168 h, 280 g ae/ha, 7 DAA): 77.5% | pest or weed control at 560 g/ha ([3]; 168 h, 560 g ae/ha, 7 DAA): 85% | pest or weed control at 280 g/ha ([3]; 336 h, 280 g ae/ha, 14 DAA): 95% | pest or weed control at 560 g/ha ([3]; 336 h, 560 g ae/ha, 14 DAA): 90% | pest or weed control at 280 g/ha ([3]; 504 h, 280 g ae/ha, 21 DAA): 96.5% | pest or weed control at 560 g/ha ([3]; 504 h, 560 g ae/ha, 21 DAA): 100% | pest or weed control at 280 g/ha ([4]; 168 h, 280 g ae/ha, 7 DAA): 82.5% | pest or weed control at 560 g/ha ([4]; 168 h, 560 g ae/ha, 7 DAA): 80% | pest or weed control at 280 g/ha ([4]; 336 h, 280 g ae/ha, 14 DAA): 100% | pest or weed control at 560 g/ha ([4]; 336 h, 560 g ae/ha, 14 DAA): 99% | pest or weed control at 280 g/ha ([4]; 504 h, 280 g ae/ha, 21 DAA): 99.5% | pest or weed control at 560 g/ha ([4]; 504 h, 560 g ae/ha, 21 DAA): 97.5% | TGA Data (rate of weight loss, volatility) [5]: 0.16 µg/min | pest or weed control at 280 g/ha ([6]; 168 h, 280 g ae/ha, 7 DAA): 76.5% | pest or weed control at 560 g/ha ([6]; 168 h, 560 g ae/ha, 7 DAA): 72.5% | pest or weed control at 280 g/ha ([6]; 336 h, 280 g ae/ha, 14 DAA): 90% | pest or weed control at 560 g/ha ([6]; 336 h, 560 g ae/ha, 14 DAA): 93.5% | pest or weed control at 280 g/ha ([6]; 504 h, 280 g ae/ha, 21 DAA): 100% | pest or weed control at 560 g/ha ([6]; 504 h, 560 g ae/ha, 21 DAA): 100% | pest or weed control at 280 g/ha ([7]; 168 h, 280 g ae/ha, 7 DAA): 70% | pest or weed control at 560 g/ha ([7]; 168 h, 560 g ae/ha, 7 DAA): 82.5% | pest or weed control at 280 g/ha ([7]; 336 h, 280 g ae/ha, 14 DAA): 89.5% | pest or weed control at 560 g/ha ([7]; 336 h, 560 g ae/ha, 14 DAA): 97.5% | pest or weed control at 280 g/ha ([7]; 504 h, 280 g ae/ha, 21 DAA): 100% | pest or weed control at 560 g/ha ([7]; 504 h, 560 g ae/ha, 21 DAA): 100%
